The subject of series [1] is TEX cells. Description: Western blot in TEX cells. It is filed as cell-based, human. Particulars: 4 days.
Series [2] deals with TEX cells. Description: Gene expression. The format is cell-based, human. Particulars: 96 hours.
The test system of series [3] is TEX cells. Description: Cell viability assay. It is filed as cell-based, human.
Series [4] concerns the target T1, RING1B RING domain (residues 10-116) as it stands in RING1B-BMI1f (UniProt Q99496 10-116).
T1 sequence: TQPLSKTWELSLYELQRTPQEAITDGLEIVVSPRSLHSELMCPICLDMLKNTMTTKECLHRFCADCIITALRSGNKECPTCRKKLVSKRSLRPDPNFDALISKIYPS
Description: crystal structure.

Turning to `COc1cc(Br)c(Nc2nc(-c3c(C)nc4ncccn34)cs2)c(Br)c1` [PTC209], the “H2Aub, BMI1 and H2A levels” value in the series with TEX cells [1] is reported as “decreased H2Aub, reduced BMI1 level and, unexpectedly, reduced H2A levels”. Further, the “C/EBPα and CD34 expression” value in the series on TEX cells [2] was “had no effect on C/EBPα and CD34 expression”. The “cytotoxicity compared with RB-3” value in the series on TEX cells [3] is reported as “more cytotoxic to TEX cells than RB-3”.

B1: BMI1 RING domain (residues 1-104) as it stands in RING1B-BMI1f (domain or fragment)
chain: MHRTTRIKITELNPHLMCVLCGGYFIDATTIIECLHSFCKTCIVRYLETSKYCPICDVQVHKTRPLLNIRSDKTLQDIVYKLVPGLFKNEMKRRRDFYAAHPSA
Consider B1, for which the binding result in series [4] is recorded as “binds”.

The record behind these values is paper PMC8238916 (Nature chemical biology, 2021).
